“Also recorded” adds a separate entry of the source.
How the values were obtained:
[1] = system: C57/Bl6 mice; experiment: Behavioural output after TRH injection in claudin-5 suppressed mice; assay type: in vivo
Protocol: The protocol of Example 1 was followed to produce transiently claudin-5 suppressed mice. 48 hours post-delivery of siRNA targeting claudin-5 or a non-targeting siRNA, a 200 μl of a solution containing 20 mg/kg Thyrotropin Releasing Hormone (TRH) was injected to the claudin-5 suppressed mice. TRH was injected in the tail vein and immediately, the behavioural output of mice was assessed by filming them in a clear Perspex box.

[2] = system: claudin-1; experiment: Western blot analysis of claudin-1 expression after hydrodynamic tail vein delivery of claudin-1 siRNA; assay type: in vivo, C57/Bl-6 mice
[3] = system: claudin-12; experiment: Claudin-12 staining in brain microvasculature after claudin-12 siRNA; assay type: in vivo, C57/Bl-6 mice; conditions: 48 hours post-injection; vs non-targeting control siRNA
[4] = system: occludin; experiment: Western blot analysis of occludin expression after hydrodynamic tail vein delivery of occludin siRNA; assay type: in vivo, C57/Bl-6 mice
[5] = system: occludin; experiment: Occludin immunohistochemistry in brain microvasculature after occludin siRNA; assay type: in vivo, C57/Bl-6 mice; conditions: 48 hour time-point
[6] = system: BBB; experiment: BBB permeability (albumin, immunoglobulin, Hoechst) following suppression of occludin; assay type: in vivo, C57/Bl-6 mice; conditions: for albumin extravasation, immunohistochemistry in brain vibratome sections: 24 hours post-injection; for passage of mouse immunoglobulins (IgG) into the brain: following suppression of occludin
Excerpt: The protocols used were identical to the protocols used in Example 1.

[7] = system: IMPDH−/− mice; experiment: Electroretinographic analysis of IMPDH−/− mice after claudin-5 suppression and GTP injection; assay type: in vivo
Protocol: IMPDH−/− mice that had received a hydrodynamic injection of siRNA targeting claudin-5 were dark-adapted overnight and prepared for electroretinography under dim red light. Pupillary dilation was carried out by installation of 1% cyclopentalate and 2.5% phenylephrine. Animals were anesthetized by intraperitoneal injection of ketamine (2.08 mg per 15 g body weight) and xylazine (0.21 mg per 15 g body weight). Once the animal was anaesthetized, GTP was injected intraperitoneally. The ERG commenced ten minutes after administration of anesthetic. Standardised flashes of light were presented to the mouse in a Ganzfeld bowl to ensure uniform retinal illumination. The ERG responses were recorded simultaneously from both eyes by means of gold wire electrodes (Roland Consulting Gmbh) using Vidisic (Dr Mann Pharma, Germany) as a conducting agent and to maintain corneal hydration. The eye was maintained in a proposed position throughout the examination by means of a small plastic band placed behind the globe. Reference and ground electrodes were positioned subcutaneously, approximately 1 mm from the temporal canthus and anterior to the tail respectively. Body temperature was maintained at 37° C. using a heating device controlled by a rectal temperature probe. Responses were analysed using a RetiScan RetiPort electrophysiology unit (Roland Consulting Gmbh). The protocol was based on that approved by the International Clinical Standards Committee for human electroretinography.

[8] = 48 hours post injection, vs non-targeting siRNA

For `NC(=O)[C@@H]1CCCN1C(=O)[C@H](Cc1cnc[nH]1)NC(=O)[C@@H]1CCC(=O)N1` [TRH, Thyrotropin Releasing Hormone], the “duration of cessation of mobility relative to non-targeting control mice” value ([1]; 20 mg/kg TRH tail vein, 48 hours post delivery of siRNA targeting claudin-5) was no more than 5 times, the “mobility / length of time mice remain immobile” value ([1]; 20 mg/kg TRH, 48 hours post delivery of siRNA targeting claudin-5) was “significant cessation of mobility; also recorded: distinct increase in the length of time” and the “delivery of TRH (359.5 Da) across the BBB” value ([1]; BBB opened with siRNA targeting claudin-5) was “significantly enhanced”.
“claudin-1 siRNA (1): siRNA, target GCAAAGCACCGGGCAGAUA; sense AUAGACGGGCCACGAAACGUU, anti-sense CGUUUCGUGGCCCGUCUAUUU (SEQ ID NO: 9, 10) (listed as RNA, chemistry not given here)” was tested, and the “claudin-1 expression, Western blot” value ([2]; 24 hours post-injection) was “not evident” and the “claudin-1 expression, Western blot” value ([2]; 48 hours post-injection) was “significantly decrease claudin-1 expression”.
For “claudin-1 siRNA (2): siRNA, target GAACAGUACUUUGCAGGCA; sense ACGGACGUUUCAUGACAAGUU, anti-sense CUUGUCAUGAAACGUCCGUUU (SEQ ID NO: 11, 12) (listed as RNA, chemistry not given here)”, the “claudin-1 expression, Western blot” value ([2]; 24 hours post-injection) was “decreased”.
“CLDN12 siRNA (3): siRNA, target GUAACACGGCCUUCAAUUC; strands GUAACACGGCCUUCAAUUCUU and GAAUUGAAGGCCGUGUUACUU (SEQ ID No. 28, 29) (listed as RNA, chemistry not given here)” was tested, and the “claudin-12 expression at the microvessels of the brain, staining” value [3] was “decreased”.
For “occludin siRNA (4): siRNA, target AGAUGGAUCGGUAUGAUAA; sense AAUAGUAUGGCUAGGUAGAUU, anti-sense UCUACCUAGCCAUACUAUUUU (SEQ ID NO: 21, 22) (listed as RNA, chemistry not given here)”, the “occludin expression, Western blot” value ([4]; 24 hours post injection) was “decrease”, the “occludin staining pattern in brain microvasculature” value (from here on “occludin staining pattern”) [5] was “returned to levels similar to those observed in the non-targeting controls” and the “albumin extravasation, immunohistochemistry in brain vibratome sections” value (shortened to “albumin extravasation”) [6] was “extravascular albumin”. The “albumin extravasation” value ([6]; listed as occludin siRNA 4) was “albumin deposition occurred” and the “passage of mouse immunoglobulins (IgG) into the brain” value [6] was “no extravasation of immunoglobulins”.
With “occludin siRNA (2): siRNA, target GAUAUUACUUGAUCGUGAU; sense UAGUGCUAGUUCAUUAUAGUU, anti-sense CUAUAAUGAACUAGCACUAUU (SEQ ID NO: 17, 18) (listed as RNA, chemistry not given here)” the “occludin expression, Western blot” value [4, 8] was “significantly decreased” and the “occludin staining pattern” value [5] was “discontinuous pattern of staining was also evident”.
“CLDN12 siRNA (4): siRNA, target GGUCUUUACCUUUGACUAU; strands AAUCUUUACCUUUGACUAUUU and AUAGUCAAAGGUAAAGAUUUU (SEQ ID No. 30, 31) (listed as RNA, chemistry not given here)” was tested, and the “claudin-12 expression at the microvessels of the brain, staining” value [3] was “decreased”.
In the case of `Nc1nc2c(ncn2[C@@H]2O[C@H](COP(=O)(O)OP(=O)(O)OP(=O)(O)O)[C@@H](O)[C@H]2O)c(=O)[nH]1` [GTP], the “ERG rod response b-wave, left eye” value ([7]; 11 month old IMPDH−/− mouse, after suppression of claudin-5 and GTP i.p., 2.48 uV before) is reported as 121 uV, the “ERG rod response b-wave, right eye” value ([7]; 11 month old IMPDH−/− mouse, after suppression of claudin-5 and GTP i.p., 50.8 uV before) is reported as 193 uV and the ERG rod tracings ([7]; IMPDH−/− mice, after suppression of claudin-5 and GTP injection) is reported as “increase significantly”.
For “occludin siRNA (1): siRNA, target GUUAUAAGAUCUGGAAUGU; sense UGUAAGGUCUAGAAUAUUGUU, anti-sense CAAUAUUCUAGACCUUACAUU (SEQ ID NO: 15, 16) (listed as RNA, chemistry not given here)”, the “occludin expression, Western blot” value [4, 8] was “significantly decreased” and the “occludin staining pattern” value [5] was “discontinuous pattern of staining was also evident”.
“occludin siRNA (3): siRNA, target CAAAUUAUCGCACAUCAAG; sense GAACUACACGCUAUUAAACUU, anti-sense GUUUAAUAGCGUGUAGUUCUU (SEQ ID NO: 19, 20) (listed as RNA, chemistry not given here)” was tested, and the “occludin staining pattern” value [5] was “returned to levels similar to those observed in the non-targeting controls”, the “albumin extravasation” value [6] was “extravascular albumin” and the “albumin extravasation” value ([6]; listed as occludin siRNA 3) was “albumin deposition occurred”. The “passage of mouse immunoglobulins (IgG) into the brain” value [6] was “no extravasation of immunoglobulins”.
With “claudin-1 siRNA (4): siRNA, target UUUCAGGUCUGGCGACAUU; sense UUACAGCGGUCUGGACUUUUU, anti-sense AAAGUCCAGACCGCUGUAAUU (SEQ ID NO: 13, 14) (listed as RNA, chemistry not given here)” the “claudin-1 expression, Western blot” value ([2]; 24 hours post-injection) was “decreased” and the “claudin-1 expression, Western blot” value ([2]; 48 hours post-injection) was “suppression was only evident”.

Source: patent US9540649B2, “Method for opening tight junctions” (The Provost, Fellows and Scholars of the College of the …, priority 2007, dated 2017)
